Entries after “also recorded” stand apart in the source; their conditions may differ.
Key:
Assay type in all cases: cell-based, Saccharomyces cerevisiae
[1] = test system: RE700A Δpdr3 tok1::PPDR5-HXT7; experiment: Growth inhibition of RE700A Δpdr3 tok1::PPDR5-HXT7 by 2-DG; conditions: RE700A Δpdr3 tok1::PPDR5-HXT7, maltose, 20 h 28° C.
Procedure: (§1) (A) Growth inhibition of RE700A i PPDR5-HXT7 (IT[PDR]), RE700A Δpdr1 tok1::PPDR5-HXT7, RE700A Δpdr3 tok1::PPDR5-HXT7 and RE700A Δpdr1,pdr3 tok1::PPDR5-HXT7 at increasing 2-DG concentrations. RE700A i PPDR5-HXT7 (IT[PDR]), RE700A Δpdr1 tok1::PPDR5-HXT7, RE700A Δpdr3 tok1::PPDR5-HXT7 and RE700A Δpdr1,pdr3 tok1::PPDR5-HXT7 were incubated 20 h at 28° C. with Maltose (2% (w/v)) as the sole carbon source and 2-DG concentrations as indicated. The optical density was measured at 600 nm every 15 minutes and the integral under the growth curve was calculated. Inhibition of growth caused by 2-DG is shown in percent. The growth of the strain RE700A tok1::PPDR5-HXT7 (IT[PDR]) was inhibited by 50% at 0.02% (w/v) 2-DG. Growth of the strains RE700A Δpdr1 tok1::PPDR5-HXT7 and RE700A Δpdr3 tok1::PPDR5-HXT7 was inhibited by 50% at 0.026% (w/v) 2-DG.
(§2) All strains expressing HXT7 were tested for sensitivity to 2-DG. The strains expressing GFP under the control of PPDR5 were additionally analysed for GFP fluorescence in comparison to RE700Ae PPDR5-GFP (strain CQ[PDR]).

[2] = test system: RE700A Δpdr1,pdr3 tok1::PPDR5-HXT7; experiment: Growth inhibition of RE700A Δpdr1,pdr3 tok1::PPDR5-HXT7 by 2-DG; conditions: RE700A Δpdr1,pdr3 tok1::PPDR5-HXT7, up to a 2-DG concentration of 0.03% (w/v)
Procedure: as §1, §2

[3] = test system: RE700A e PCDR2-HXT7 (ET[CDR2]); experiment: Growth inhibition of ET[CDR2] by 2-DG; conditions: liquid media, 20 h 28° C., compared to growth in the absence of 2-DG
Procedure: FIG. 6: Growth inhibition of RE700A, ET[CDR1] and ET[CDR2] in the presence of increasing 2-DG concentrations after 20 h incubation at 28° C. for in liquid medium. RE700A, ET[CDR1] and ET[CDR2] were incubated 20 h at 28° C. with maltose (2% (w/v)) as the sole carbon source in the presence of increasing 2-DG concentrations in liquid medium. The optical density was measured at 600 nm semi-continuously every 15 minutes and the integral under the growth curve was calculated. Inhibition of growth is shown in percent compared to growth in the absence of 2-DG. Growth of ET[CDR1] was inhibited by 92% at a 2-DG concentration in liquid media of 0.05% (w/v), by 94% at a 2-DG concentration in liquid media of 0.075% (w/v), by 93% at a 2-DG concentration in liquid media of 0.1% (w/v) and by 95% at a 2-DG concentration of 0.2% (w/v). Growth of ET[CDR2] was inhibited by 50% at a 2-DG concentration in liquid media of 0.05% (w/v), by 70% at a 2-DG concentration in liquid media of 0.075% (w/v), by 70% at a 2-DG concentration in liquid media of 0.1% (w/v) and by 84% at a 2-DG concentration of 0.2% (w/v).
(2) Episomal screening system for inhibitors of PCDR2: S. cerevisiae strain RE700A was transformed with plasmids pY-PCDR2-HXT7 and pY-PCDR2-GFP yielding strains ET[CDR2] and CQ[CDR2] (for details see construction of strains and plasmids, for the complete genotype refer to Table 1). The inhibition of growth of ET[CDR2] by 2-DG was tested. The growth of this strain was inhibited to more than 80% at a 2-DG concentration of 0.2% (w/v) (FIG. 6). To screen for inhibitors of the PCDR2, the test strain ET[CDR2] can be incubated in selective YNB medium with 2% (w/v) maltose as the carbon source and 0.2% (w/v) 2-DG. Under these non-permissive conditions the growth of the test strain ET[CDR2] was inhibited when PCDR2 was active (FIG. 6).

[4] = test system: RE700A i PCDR2-HXT7 (IT[CDR2]); experiment: Growth inhibition of IT[CDR2] by 2-DG; conditions: 20 h 28° C., maltose, regarding growth in the absence of 2-DG
Procedure: FIG. 8: Growth inhibition of RE700A and IT[CDR2] by 2-DG. RE700A and IT[CDR2] were incubated for 20 h at 28° C. with maltose (2% (w/v)) as the sole carbon source and increasing 2-DG concentrations as indicated. The optical density was measured at 600 nm every 15 minutes and the integral under the growth curve was calculated. Inhibition of growth is shown in percent regarding growth in the absence of 2-DG. Growth of IT[CDR2] was inhibited by 30% at a 2-DG concentration of 0.1% (w/v), by 79% at a 2-DG concentration of 1% (w/v), by 89% at a 2-DG concentration of 2% (w/v), by 91% at a 2-DG concentration of 3% (w/v).
(4) Integrated screening system for inhibitors of PCDR2: S. cerevisiae strain RE700A was genetically modified as described in Examples 1 and 2 to yield strain IT[CDR2], chromosomally expressing HXT7 under the control of the promoter of CDR2 (PCDR2) (for the complete genotype see Table 1). The inhibition of growth of IT[CDR2] by 2-DG was tested. The growth of this strain was inhibited by 50% at a 2-DG concentration of 1% (w/v) and by 80% at a 2-DG concentration of 2% (w/v) (FIG. 8).

For O=CC[C@@H](O)[C@H](O)[C@H](O)CO [2-DG, 2-deoxy-glucose], which “2-DG concentration for 50% growth inhibition” value [1] is on record?
The value was 0.026 % (w/v).

And the “Growth inhibition / 2-DG sensitivity” value [2]?
Its value is “did not show significant 2-DG sensitivity; also recorded: not significantly inhibited”.

And the Inhibition of growth ([3]; 0.05% (w/v) 2-DG)?
Its Inhibition of growth is 50%.

And the Inhibition of growth ([3]; 0.075% (w/v) 2-DG)?
Its Inhibition of growth is 70%.

And the Inhibition of growth ([3]; 0.1% (w/v) 2-DG)?
Its Inhibition of growth is 70%.

And the Inhibition of growth ([4]; 0.1% (w/v) 2-DG)?
The Inhibition of growth was 30%.

And the Inhibition of growth ([4]; 3% (w/v) 2-DG)?
Its Inhibition of growth is 91%.

Source: patent US9121026B2 (priority 2004, dated 2015)
